The subject of data set [1] is Rattus norvegicus. Nature of the data set: Induction of gastric emptying of solid meal in Wistar rat gastroparesis model at 10 mg/kg, iv administered immediately post phenol red containing methylcellulose meal intake measured after 15 mins by colorimetric method relative to vehicle-treated control. The class given is functional, Stomach.
For data set [2], the system named is Rattus norvegicus. The experiment in a line: Gastrokinetic activity in Wistar rat gastroparesis model at 10 mg/kg, iv administered immediately post phenol red containing methylcellulose meal intake measured after 15 mins by colorimetric method relative to vehicle-treated control. In kind it is functional, organism-based.
For data set [3], the system named is Rattus norvegicus. The experiment in a line: Induction of gastric emptying of solid meal in Wistar rat gastroparesis model at 20 ug/kg, iv administered immediately post phenol red containing methylcellulose meal intake measured after 15 mins by colorimetric method relative to vehicle-treated control. The class given is functional, Stomach.
The test system of data set [4] is Rattus norvegicus. Nature of the data set: Gastrokinetic activity in Wistar rat gastroparesis model at 20 ug/kg, iv administered immediately post phenol red containing methylcellulose meal intake measured after 15 mins by colorimetric method relative to vehicle-treated control. The class given is functional, organism-based.
Data set [5] has as its system Rattus norvegicus. The experiment in a line: Induction of gastric emptying of solid meal in Wistar rat gastroparesis model at 100 ug/kg, iv administered immediately post phenol red containing methylcellulose meal intake measured after 15 mins by colorimetric method relative to vehicle-treated control. The class given is functional, Stomach.
Data set [6] in a line: Metabolic stability in human plasma assessed as compound recovery in presence of PBS at 2 hrs by LC-MS analysis. The class given is ADME, cell-free. To be noted: read-out: Drug recovery.
Data set [7] concerns the target Cytochrome P450 3A4 (Homo sapiens, UniProt P08684). The experiment in a line: Inhibition of human CYP3A4 at 0.0457 to 100 uM. The class given is ADME.
Data set [8] relates to Rattus norvegicus. Nature of the data set: Induction of gastric emptying of solid meal in Wistar rat gastroparesis model at 5 to 50 ug/kg, iv administered immediately post methylcellulose meal containing phenol red intake measured after 15 mins by colorimetric method. The class given is functional, organism-based. The settings on record: Stomach.
The test system of data set [9] is Rattus norvegicus. Nature of the data set: Effect on pulsatile growth hormone release in plasma of free moving Sprague-Dawley rat at 5 ug/kg, iv administered at 1100 and 1300 […] during 6 hrs of sampling period measured every 15 mins over 6 hrs of sampling period by radioimmunoassay relative to vehicle-treated control. The class given is functional, organism-based.

The structures appear in SMILES notation. Activity calls are given as the source filed them. The calls are words filed in the database; no cut-off is given here.

Cytochrome P450 3A4, sequence (P08684 whole entry): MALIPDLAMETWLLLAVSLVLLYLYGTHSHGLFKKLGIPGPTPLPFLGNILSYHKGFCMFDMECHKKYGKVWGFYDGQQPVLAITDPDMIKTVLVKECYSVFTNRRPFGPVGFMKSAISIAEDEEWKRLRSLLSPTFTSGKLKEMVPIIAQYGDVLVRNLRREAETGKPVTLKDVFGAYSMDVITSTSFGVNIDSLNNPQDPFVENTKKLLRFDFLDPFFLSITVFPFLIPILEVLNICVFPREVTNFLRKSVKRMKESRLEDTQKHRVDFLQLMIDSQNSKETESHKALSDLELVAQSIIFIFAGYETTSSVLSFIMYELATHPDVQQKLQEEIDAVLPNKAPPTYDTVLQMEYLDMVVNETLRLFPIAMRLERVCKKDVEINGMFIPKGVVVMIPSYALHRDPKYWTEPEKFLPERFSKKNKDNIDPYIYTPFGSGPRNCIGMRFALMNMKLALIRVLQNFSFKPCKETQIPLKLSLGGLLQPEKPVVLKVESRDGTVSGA

With `CCN(CC)CCNC(=O)c1cc(Cl)c(N)cc1OC.Cl`, in data set [1], the Activity came to 41%. For the same compound, the result in data set [2] was Active.
`C[C@H](NC(=O)[C@@H](Cc1c[nH]c2ccccc12)NC(=O)[C@@H](N)Cc1cnc[nH]1)C(=O)N[C@H](Cc1c[nH]c2ccccc12)C(=O)N[C@@H](Cc1ccccc1)C(=O)N[C@@H](CCCCN)C(N)=O` showed an Activity in [3] of 40%. Further, the outcome in data set [4] was Active.
Consider `C[C@@H]1CN[C@@H](C2CC2)C(=O)N(C)[C@H](C)C(=O)N[C@H](Cc2ccc(F)cc2)C(=O)NCCCc2ccccc2O1` [ULIMORELIN], for which, in [5], the Activity is on record as 30 - 39%. Besides, the remaining at 2 h in [6] is 99%. Also, in [7], the “inhibition (INH)” value was “Active”.
`CCCCCCCC(=O)OC[C@H](NC(=O)[C@H](CO)NC(=O)CN)C(=O)N[C@@H](Cc1ccccc1)C(=O)N[C@@H](CC(C)C)C(=O)N[C@@H](CO)C(=O)N1CCC[C@H]1C(=O)N[C@@H](CCC(=O)O)C(=O)N[C@@H](Cc1cnc[nH]1)C(=O)N[C@@H](CCC(N)=O)C(=O)N[C@@H](CCCNC(=N)N)C(=O)N[C@H](C(=O)N[C@@H](CCC(N)=O)C(=O)N[C@@H](CCC(N)=O)C(=O)N[C@@H](CCCNC(=N)N)C(=O)N[C@@H](CCCCN)C(=O)N[C@@H](CCC(=O)O)C(=O)N[C@@H](CO)C(=O)N[C@@H](CCCCN)C(=O)N[C@@H](CCCCN)C(=O)N1CCC[C@H]1C(=O)N1CCC[C@H]1C(=O)N[C@@H](C)C(=O)N[C@@H](CCCCN)C(=O)N[C@@H](CC(C)C)C(=O)N[C@@H](CCC(N)=O)C(=O)N1CCC[C@H]1C(=O)N[C@@H](CCCNC(=N)N)C(=O)O)C(C)C`: the result in [8] and in [9] was Active.

These data come from ChEMBL document CHEMBL3879905, “Methods of using macrocyclic modulators of the ghrelin receptor” (2013).
